The subject of data set [1] is tympanic membrane (TM) cells. The data set is described as follows: Confocal imaging of immunolabeled phage within the tympanic membrane after one-hour application to the external TM surface in vivo. On the set-up: species or system Sprague Dawley rats. The procedure:
Rodent cocktail (2.0 mg/kg xylazine and 40.0 mg/kg ketamine i.m.) was employed for anesthesia. The ME bulla was exposed via a ventral midline neck incision. A 25 g needle was used to make a small opening in the bullar bone, through which 5 × 10^4 CFUs of nontypeable Haemophilus influenzae (NTHi) type 3655 [20] was injected, in 50 μL of BHI media using a 30 g needle. Care was taken to avoid damaging the tympanic membrane, ossicles, or inner ear. Animals survived for 48 h to allow for an ME infection to develop, which was confirmed by TM visualization. Phages were then applied to the external TM surface in vivo for one hour in 10^9 PFUs ([…] forming units) in 10 μL of PBS, ensuring the entire surface of the membrane was covered.
For confocal microscopy, TMT3 and WT phages were employed. The animal was sacrificed, the phage solution removed, and the TM washed 3× with PBS to remove any remaining phage solution, then 2× with acid wash to remove phages bound to the TM, followed by 2× with PBS. The bulla was then dissected and opened, the interior TM surfaces were washed as above, and the TM was fixed in cold 4% PFA overnight. The TM was dissected from the annular bone and additionally washed 2× with PBS, and the manubrium of the malleus carefully removed. The membrane was incubated in tissue-penetration and blocking solution (5% Triton X and 10% fetal bovine serum (FBS) in PBS) for one hour at room temperature. The TMs were again washed 2× in PBS and incubated in primary antibody (M13 anti-phage coat protein, rabbit polyclonal antibody, Invitrogen PA1-26758, 1:100) overnight at 4 °C. TMs were washed 2× in PBS and incubated with a secondary antibody (FITC-labeled anti-rabbit, Jackson Immuno, 711-095-152) previously treated with DyLight 405 stain for enhanced visualization (Jackson Immuno 711-475-152) at 1:100 concentration for three hours at room temperature with light protection. TMs were again washed with PBS 2× and stained with DAPI (Novus NPB2-31156, 1:1000, 30 min at room temperature with light protection). Some TMs were also incubated with Texas Red-X Phalloidin (Invitrogen T7471, F-actin staining) at 1:500 concentration for one and one-half hours at room temperature and light protection to stain actin. After incubations, TMs were washed 2× with PBS and mounted with the external surface uppermost using antifade, hard-mount media (Vectashield, VectaLabs H-1400). Control TMs were exposed for 1 h to PBS in vivo and then identically treated.
The localization of the phage was evaluated via fluorescence confocal microscopy. TMs were imaged on a Leica SP8 Confocal with Lightning-adaptive deconvolution or an Olympus FV1000 Confocal with SIM Scanner, and 60× and 100× image stacks were generated for rendering of stained TMs. Image stacks were post-processed using Velocity high-performance software to generate images. Separate portions of the stacks were used to visualize phages in the external epithelium, the middle fibrous layer, and the inner mucosal epithelium.

Data set [2] deals with tympanic membrane (TM). The experiment in a line: Titer of phage recovered from within the TM (homogenate) after one-hour application to the external TM surface. Format: in vivo, Sprague Dawley rats. The following applies: 10^9 PFU in 10 μL PBS, six infected rats, PBS and 0.2 M glycine acid wash (pH 2.2), TM homogenized, titered on E. coli, mean of six. The procedure:
Each peptide phage was applied to the external TM surface (10^9 PFU in 10 μL of PBS) of six previously infected rats, ensuring that the entire membrane surface was covered for one hour.

Data set [3] concerns tympanic membrane (TM). To be noted: recovery from ME lumen after one-hour application to external TM surface; cited from earlier work. The procedure: Each peptide phage was applied to the external TM surface (10^9 PFU in 10 μL of PBS) of six previously infected rats, ensuring that the entire membrane surface was covered for one hour. The phage solution was removed from the ex ...

[4] abbreviates: NTHi-infected ME, 10^9 PFU in 10 μL PBS, one hour, confocal, ImageJ count.

As to SADSTKTTHLTL [TMT3], the “mean number of puncta per cell, external epithelium of the TM” value in data set [1] (NTHi-infected ME, 10^9 PFU in 10 μL PBS on external TM surface, one hour, anti-M13 immunolabel, confocal, ImageJ count, s.d. 43.1) is listed as 139.2 puncta per cell. In data set [1] (setting [4]), the “median number of puncta per cell, external epithelium of the TM” value is listed as 110 puncta per cell and the “median number of puncta per cell, inner mucosal epithelium of the TM” value was determined as 23 puncta per cell. Moreover, in data set [1] (NTHi-infected ME, 10^9 PFU in 10 μL PBS, one hour, confocal, ImageJ count, significantly less than external epithelium (p 0.002)), the “mean number of puncta per cell, inner mucosal epithelium of the TM” value was 42.9 (s.d. 44.8) puncta per cell. In data set [1] (one-hour application, confocal, ImageJ count), the “phage content of the cells with the highest numbers (mucosal cells comparable to external epithelium)” value is on record as 200–250 puncta/cell. Further, in data set [1] (one-hour incubation on the external canal TM surface, confocal imaging), the “presence of phage within TM cells by immunolabeling (in words)” value is “clearly intracellular and are restricted to the cell cytoplasm”. In the data set with tympanic membrane (TM) [2], the “phage titer recovered from within the TM (in words)” value was “higher than that of TMT3 (18)-1”. Also, the “trans-TM transport rate (in words)” value in the data set with tympanic membrane (TM) [3] was “high transport rate”.

As to TLSPKMPGGGYW [TMT2], the “phage titer recovered from within the TM (in words)” value with tympanic membrane (TM) [2] was “significantly higher than those of TMT3”. The “trans-TM transport rate (in words)” value with tympanic membrane (TM) [3] is on record as “low transport rate”.
